Assay results as given in patent US5762956A, “Transdermal contraceptive delivery system and process” (priority 1996, dated 1998).

Experiments:
[1] = In-vitro drug permeation study, human cadaver skin, Valia-Chien cell, HPLC; format: in vitro ADME; conditions: from 10 cm^2 TCDS patch of Example 1, steady state
Experimental: The samples taken from the receptor compartment of the diffusion cell were analyzed by high performance liquid chromatography.
The skin permeation flux of each drug was subsequently calculated from the steady state of the permeation profile.

Rabbit Skin = experiment: Residual drug assay of patches from dermal toxicity test (daily delivery rate into rabbit); conditions: for in vivo delivery rate compared with in vitro rate: rabbit vs in vitro; for Daily Delivery Rate: rabbit, N = 6, ± S.D.
Experimental: The test consists of an one-week primary skin irritation study on six rabbits followed by histopathological examination on each patch application. Both medicated and placebo patches of this TCDS formulation were tested on either intact or abraded skin. Based on the Draize Scale Scoring Method, the primary dermal irritation index (PDII) was given to each patch application site at 24 and 72 hours following the 7 days application period. The patches used in the primary skin irritation test were retrieved for residual drug assay to determine the amount of drugs delivered into the test animal.

[2] = Phase I residual drug assay of used patches (daily delivery rate); conditions: for relationship between daily delivery rate and dosage: 1, 2 or 3 × 10 cm^2 TCDS patches; for Daily Delivery Rate: ± S.D.
From the text: In this study, healthy female subjects of child-bearing age were randomly divided into 4 groups in a 4-way parallel study design (See Table 5). The study consists of three menstrual cycles which are sequentially arranged as pre-treatment, treatment and post-treatment cycles. During the pre-treatment cycle, the 48 recruited subjects were given placebo TCDS patches to study the wearability (including skin irritation and adhesion tests) while they were being screened against the inclusion/exclusion criteria specified in the clinical protocol. During the treatment cycle, each of the […] in Group A, B and C received weekly application of 1, 2 or 3 pieces of 10 cm^2 TCDS patches, respectively, while each subject in Group D received one oral contraceptive pill (each pill contains 150 μg of levonorgestrel and 35 μg of ethynyl estradiol) per day as reference.

[3] = Phase I serum levonorgestrel by radioimmunoassay; format: in vivo, human (fertile Chinese women); conditions: Groups B and C, three weeks of patch application
Experimental: Blood samples obtained from these three cycles of studies were assayed by radioimmunoassay (RIA) methods for their serum concentration of levonorgestrel, estradiol, progesterone, luteinizing hormone (LH) and follicle stimulating hormone (FSH). Ultrasonic measurement of follicle size and endometrium thickness measurement were also performed during the mid-treatment cycle. Bioavailability of levonorgestrel was assessed by the serum levonorgestrel profile of each subject group. Suppression of post-ovulatory progesterone peak and mid-cycle surges of LH and FSH provided hormonal indications of ovulation inhibition.

C[C@]12CC[C@@H]3c4ccc(O)cc4CC[C@H]3[C@@H]1CC[C@@H]2O [17-beta-estradiol]
skin permeation flux / amount delivered [1]: ~28.8 µg/day
in vivo delivery rate compared with in vitro rate (Rabbit Skin): higher than skin permeation rate obtained in the in vitro study
Daily Delivery Rate (Rabbit Skin; abraded skin): 35.1 ± 26.70 µg/day
Daily Delivery Rate (Rabbit Skin; intact skin): 37.0 ± 19.77 µg/day
relationship between daily delivery rate and dosage [2]: established only for the dosages of the first and second pieces of 10 cm^2 TCDS patches
Daily Delivery Rate ([2]; Group A: 1 × 10 cm^2 patch/week): 42.1 ± 16.32 µg/day
Daily Delivery Rate ([2]; Group B: 2 × 10 cm^2 patch/week): 89.7 ± 28.4 µg/day
Daily Delivery Rate ([2]; Group C: 3 × 10 cm^2 patch/week): 110.4 ± 28.61 µg/day

C#C[C@]1(O)CC[C@H]2[C@@H]3CCC4=CC(=O)CC[C@@H]4[C@H]3CC[C@@]21CC [Levonorgestrel, levonorgestrel]
skin permeation flux / amount delivered [1]: about 60.0±9.42 μg/day
in vivo delivery rate compared with in vitro rate (Rabbit Skin): seems to correlate very well with the in vitro delivery rate
relationship between daily delivery rate and dosage [2]: linearly proportional to the increase in dosage of TCDS patches
serum concentration of levonorgestrel versus target concentration [3]: above the target concentration throughout the three weeks of patch application
